According to patent publication EP0307553B1, “Modified splenopentines, their process of preparation and their use” (priority 1987, dated 1989):

How the values were obtained:
NMRI-Mäuse [1] = test: Chemically induced suppression of the humoral immune response (cyclophosphamide, dexamethasone; Fig. 2); assay type: in vivo
Text: (§1) Der Einfluß von DAc-SP5 und immunsuppressiv wirkenden Verbindungen auf die Antigen-spezifische IgM-Antwort bei Mäusen wurde untersucht. Die erhaltenen Ergebnisse sind in den Fig.1 und 2 dargestellt.
DAc-SP5 rekonstituiert bereits durch wenige aufeinanderfolgende Applikationen die chemisch induzierts Suppression der humoralen Immunantwort.

[2] = test system: Monocyten bzw. Lymphocytensubpopulationen; test: Cytofluorimetric quantification of monocytes and lymphocyte subpopulations in a patient with secondary immunodeficiency; assay type: in vivo, Patientin; settings: for DR^+-Monocyten (Gpt/l): before treatment 0,02, normal 0 -0,6; for CD 4 (Gpt/l): before treatment 0,03, normal 0,6 - 1,3; for CD 3 (Gpt/l): before treatment 0,04, normal 1,0 - 2,0; for Lymphocyten (Gpt/l): before treatment 0,28, normal 1,5 - 3,5; for CD 4/ CD 8: before treatment 0,58, normal 1,5 - 3,0; for DR^+-Monocyten (%): before treatment 16, normal 65 - 90
[3] = test system: HIV-infizierten Patienten; test: Therapy of HIV-infected patients
[4] = Histopathological lung changes after infection, mouse; assay type: in vivo, Maus (Balb/c); settings: Maus (TCID = 10^3,5)
NMRI-Mäuse [5] = test: Antigen-specific IgM response against sheep erythrocytes in normal mice (Jerne plaque test, Fig. 1); assay type: in vivo; settings: 3x at 24 h intervals, 0,5 mg/kg, independent of route of application
Text: as §1
Tiere: männliche NMRI-Mäuse (Koloniezucht) im Alter von 2-2,5 Monaten. Methodik des Jerne-Plaquetests entsprechend R. Eckert und G. Pasternak, Acta biol. med. germ. 31: 127-137 (1973), n= 16 (NaCl-Kontrolle), n= 8 (DAc-SP5-Versuche).

[6] = Histopathological lung changes after infection, hamster; assay type: in vivo, syrischen Hamster; settings: Hamster (TCID₅₀ = 2 x 10^3,5)
[7] = test system: Knochenmark-stammzellen von C57 Bl-Mäusen; test: Colony formation test: mouse bone marrow stem cells co-cultured with human leukocytes in agar; assay type: cell-based; settings: without DAc-SP5 = 100 %
männlichen Balb/c-Mäusen = test: Chronic alcohol intoxication: parameters of the immune system; assay type: in vivo, Mäuse; settings: 5x daily before test, n=40
Coxsackievirus B4 = test: Histologically confirmed pancreatitis after Coxsackievirus infection; assay type: in vivo, Balb/c-Mäuse
Milzzellen/Ratte = test: Radioligand binding study, rat spleen cells
[8] = HIV-infected patients (Tab. 6.1.)
[9] = therapy before infection: 0,5 mg/kg s.c. 3 x per week during 2 weeks before infection
[10] = therapy during infection: 0,5 mg/kg s.c. daily over 5 days from day of infection
[11] = 15 % Ethanol over 1,5 months + 0,1 mg DAc-SP5 i.p.
[12] = no Ethanol, 0,1 mg DAc-SP5 i.p.

## (N^α-Acetyl-arginyl)(N^ε-acetyl-lysyl)glutamylvalyltyrosin [DAc-SP5]
NMRI-Mäuse [1]; Cyclophosphamid 7,2 mg/Tier i. p. once, DAc-SP5 0,5 mg/kg s. c. on the 4 following days
  Suppression der Antigen-spezifischen IgM-Antwort nach Cyclophosphamid: teilweise rekonstituiert
NMRI-Mäuse [1]; Dexamethason 0,2 or 0,08 mg/Tier i. p., DAc-SP5 0,5 mg/kg s. c. on the two following days
  Reduktion der Antigen-spezifischen IgM-Antwort durch Dexamethason: vollständig rekonstituiert
[2]; 2 weeks of therapy
  DR^+-Monocyten (Gpt/l): 0,08 Gpt/l
  CD 4 (Gpt/l): 0,29 Gpt/l
  CD 3 (Gpt/l): 0,39 Gpt/l
  Lymphocyten (Gpt/l): 0,84 Gpt/l
  CD 4/ CD 8: 2,3
  DR^+-Monocyten (%): 22%
[2]; 3 weeks of therapy
  DR^+-Monocyten (Gpt/l): 0,26 Gpt/l
  CD 4 (Gpt/l): 0,34 Gpt/l
  CD 3 (Gpt/l): 0,55 Gpt/l
  Lymphocyten (Gpt/l): 0,74 Gpt/l
  CD 4/ CD 8: 2,2
  DR^+-Monocyten (%): 62%
[2]; 4 weeks of therapy
  DR^+-Monocyten (Gpt/l): 0,60 Gpt/l
  CD 4 (Gpt/l): 0,38 Gpt/l
  CD 3 (Gpt/l): 0,67 Gpt/l
  Lymphocyten (Gpt/l): 0,83 Gpt/l
  CD 4/ CD 8: 2,4
  DR^+-Monocyten (%): 72%
[3]; [8]
  CD4⁺/CD8⁺-Verhältnisses: Verbesserung
  Gesamtlymphocytenzahl: Anhebung der Gesamtlymphocytenzahl in den Kontrollbereich
[3]; HIV-infected patients, after 16 weeks of therapy
  Nebenwirkungen: keine Nebenwirkungen
[4]; [9]
  Anzahl der Tiere mit histopathologischem Lungenbefund (%): 100%
[4]; [10]
  Anzahl der Tiere mit histopathologischem Lungenbefund (%): 0%
NMRI-Mäuse [5]
  Stärke und Kinetik der IgM-Antwort von Mäusen gegen Schafserythrocyten: keinen siknifikanten Einfluß
[6]; [9]
  Anzahl der Tiere mit histopathologischem Lungenbefund (%): 100%
[6]; [10]
  Anzahl der Tiere mit histopathologischem Lungenbefund (%): 10%
[7]; leukocytes of Kontroll-personen, Exp. A, 1 µg DAc-SP5 per 1 ml agar
  Zell-"Kolonien" pro 10^5 Knochenmarkzellen, Prozentuale Angabe: 99%
[7]; leukocytes of Kontroll-personen, Exp. A, 2 µg DAc-SP5 per 1 ml agar
  Zell-"Kolonien" pro 10^5 Knochenmarkzellen, Prozentuale Angabe: 98%
[7]; leukocytes of Kontroll-personen, Exp. A, 10 µg DAc-SP5 per 1 ml agar
  Zell-"Kolonien" pro 10^5 Knochenmarkzellen, Prozentuale Angabe: 114%
[7]; leukocytes of Kontroll-personen, Exp. A, 20 µg DAc-SP5 per 1 ml agar
  Zell-"Kolonien" pro 10^5 Knochenmarkzellen, Prozentuale Angabe: 125%
[7]; leukocytes of Kontroll-personen, Exp. B, 1 µg DAc-SP5 per 1 ml agar
  Zell-"Kolonien" pro 10^5 Knochenmarkzellen, Prozentuale Angabe: 135%
[7]; leukocytes of Kontroll-personen, Exp. B, 2 µg DAc-SP5 per 1 ml agar
  Zell-"Kolonien" pro 10^5 Knochenmarkzellen, Prozentuale Angabe: 136%
[7]; leukocytes of Kontroll-personen, Exp. B, 10 µg DAc-SP5 per 1 ml agar
  Zell-"Kolonien" pro 10^5 Knochenmarkzellen, Prozentuale Angabe: 147%
[7]; leukocytes of Kontroll-personen, Exp. B, 20 µg DAc-SP5 per 1 ml agar
  Zell-"Kolonien" pro 10^5 Knochenmarkzellen, Prozentuale Angabe: 137%
[7]; leukocytes of Patienten (Systemischer Lupus Erythe-matodes), Exp. A, 1 µg DAc-SP5 per 1 ml agar
  Zell-"Kolonien" pro 10^5 Knochenmarkzellen, Prozentuale Angabe: 180%
[7]; leukocytes of Patienten (Systemischer Lupus Erythe-matodes), Exp. A, 2 µg DAc-SP5 per 1 ml agar
  Zell-"Kolonien" pro 10^5 Knochenmarkzellen, Prozentuale Angabe: 316%
[7]; leukocytes of Patienten (Systemischer Lupus Erythe-matodes), Exp. A, 10 µg DAc-SP5 per 1 ml agar
  Zell-"Kolonien" pro 10^5 Knochenmarkzellen, Prozentuale Angabe: 270%
[7]; leukocytes of Patienten (Systemischer Lupus Erythe-matodes), Exp. A, 20 µg DAc-SP5 per 1 ml agar
  Zell-"Kolonien" pro 10^5 Knochenmarkzellen, Prozentuale Angabe: 256%
[7]; leukocytes of Patienten (Systemischer Lupus Erythe-matodes), Exp. B, 2 µg DAc-SP5 per 1 ml agar
  Zell-"Kolonien" pro 10^5 Knochenmarkzellen, Prozentuale Angabe: 873%
[7]; leukocytes of Patienten (Systemischer Lupus Erythe-matodes), Exp. B, 10 µg DAc-SP5 per 1 ml agar
  Zell-"Kolonien" pro 10^5 Knochenmarkzellen, Prozentuale Angabe: 642%
[7]; leukocytes of Patienten (Systemischer Lupus Erythe-matodes), Exp. B, 20 µg DAc-SP5 per 1 ml agar
  Zell-"Kolonien" pro 10^5 Knochenmarkzellen, Prozentuale Angabe: 438%
männlichen Balb/c-Mäusen; [11]
  % phagocytierende Peritonealzellen: 47,5±1,7%
  Milzmasse (mg): 82,0±5,6 mg
  Phagocytoseindex: 4,5±0,1
  Plaque-bildende Zellen der Milz pro 10⁶ Zellen (Jerne-Plaquetest): 214,3±5,9 pro 10⁶ Zellen
  Thymusmasse (mg): 29,0±2,2 mg
männlichen Balb/c-Mäusen; [12]
  % phagocytierende Peritonealzellen: 75,0±2,6%
  Milzmasse (mg): 95,0±7,1 mg
  Phagocytoseindex: 4,9±0,15
  Plaque-bildende Zellen der Milz pro 10⁶ Zellen (Jerne-Plaquetest): 285,0±11,3 pro 10⁶ Zellen
  Thymusmasse (mg): 40,0±3,0 mg
Coxsackievirus B4; Infektionsdosis (TCID₅₀) 10³, therapy during infection: 0,5 mg/kg s.c. daily over 5 days from day of infection
  Tiere mit Pankreatitis (in %, n = 10-15): 0%
Coxsackievirus B4; Infektionsdosis (TCID₅₀) 10⁴, therapy before infection: 0,5 mg/kg s.c. 3 x per week during 2 weeks before infection
  Tiere mit Pankreatitis (in %, n = 10-15): 80%
Coxsackievirus B4; Infektionsdosis (TCID₅₀) 10⁴, therapy during infection: 0,5 mg/kg s.c. daily over 5 days from day of infection
  Tiere mit Pankreatitis (in %, n = 10-15): 0%
Coxsackievirus B4; Infektionsdosis (TCID₅₀) 10⁵, therapy before infection: 0,5 mg/kg s.c. 3 x per week during 2 weeks before infection
  Tiere mit Pankreatitis (in %, n = 10-15): 100%
Coxsackievirus B4; Infektionsdosis (TCID₅₀) 10⁵, therapy during infection: 0,5 mg/kg s.c. daily over 5 days from day of infection
  Tiere mit Pankreatitis (in %, n = 10-15): 60%
Coxsackievirus B4; Infektionsdosis (TCID₅₀) 10⁶, therapy before infection: 0,5 mg/kg s.c. 3 x per week during 2 weeks before infection
  Tiere mit Pankreatitis (in %, n = 10-15): 100%
Coxsackievirus B4; Infektionsdosis (TCID₅₀) 10⁶, therapy during infection: 0,5 mg/kg s.c. daily over 5 days from day of infection
  Tiere mit Pankreatitis (in %, n = 10-15): 100%

## ³H-Splenopentin [³H-SP5]
Milzzellen/Ratte
  Radioligand-Dissoziationskonstante (KD, M): keine verdrängbare Bindung
